Laboratory results: patent EP0099121A2, “Pharmaceutical compositions” (Bristol-Myers Company, priority 1982, dated 1984)
Read-outs that look alike come from different tables or passages of the source. Where a SMILES comes first, the peptide text is derived from it. [ ]: non-standard residue; d: D form. The star is where a group is joined. Sta = CC(C)C[C@H](N)[C@@H](O)CC(=O)O; Isovaleryl = CC(C)CC(=O)*

How the values were obtained:
pepsin [1] = conditions: duodenal ulcer; cited from earlier work
pepsin [2] = conditions: in the feed at >50 ppm; cited from earlier work
[3] = all animal species studied; cited from earlier work
[4] = cited from earlier work
pepsin [5] = conditions: cited from earlier work
pepsin [6] = conditions: patients with ulcer dyspepsia; cited from earlier work
stomach ulcers = conditions: rat, in vivo; cited from earlier work
[7] = daily oral doses of 700 mg for up to three months; cited from earlier work
gastric ulcer = conditions: 100 mg doses seven times a day, versus placebo; cited from earlier work
duodenal ulcer = conditions: 100 mg doses seven times a day, cited from earlier work
pepsin [8] = assay: 18 hour pylorus ligated rat; assay type: in vivo; conditions: 20 mg/kg po
gastric secretion [9] = assay: Inhibition of gastric secretion by the oral route, dog; assay type: in vivo
gastric erosions = assay: HCl-induced gastric erosions in rats, pretreatment with compound alone or with pepstatin; assay type: in vivo, Long Evans rats; conditions: probit analysis
Description: Adult male, Long Evans rats weighing 280-300 g (Blue Spruce Farms, Alton, New York) were used. The animals were individually caged and food and water were removed 24 and 18 hours, respectively, prior to testing. On the following day, the test compound was administered orally to the animals 30 minutes before 1.0 mL of 0.75N HC1 was instilled into the stomach by gavage. Animals treated with the combination of the test compound and pepstatin received the test compound 30 minutes before, and a fixed amount of pepstatin (20 mg/kg po) 10 minutes before, the hydrochloric acid was administered. […] One hour after receiving the HC1 solution, the animals were sacrificed with an intraperitoneal injection of 0.2 mL of T-6r-, a euthanasia solution (National Laboratories Corp.).
The stomachs were photographed with a Polaroid" Close Up camera (Polaroid Corporation) and scoring was determined from the photographs. For scoring purposes, only those erosions with a minimum length of 1 mm were considered. The severity of gastric ulceration was defined for each animal as the sum of the maximum continuous lengths (in mm) of the erosions satisfying the above criteria. […]
Data were analyzed using the t-test for unpaired data and ED50 values were calculated from the dose response data using probit analysis [Finney, Probit Analysis, 3rd ed., University Press, Cambridge, England (1971)]. […]

gastric secretion [10] = assay: Inhibition of gastric secretion by the oral route, rat; assay type: in vivo

SMILES: CC(C)CC(=O)N[C@H](C(=O)N[C@H](C(=O)N[C@@H](CC(C)C)[C@@H](O)CC(=O)N[C@@H](C)C(=O)N[C@@H](CC(C)C)[C@@H](O)CC(=O)O)C(C)C)C(C)C [pepstatin] (Isovaleryl-VV[Sta]A[Sta]-OH)
- benefit in patients with duodenal ulcer (pepsin [1]): ineffective
- occurrence of ulcers (pepsin [2]): prevented the occurrence of ulcers
- pepsin activity in the gastric juice (pepsin [2]): inhibited pepsin activity
- LD50 [3]: exceeded 3000 mg/kg
- excreted in the feces ([4]; animal studies, oral, within 72 hours): more than 90%
- absorption upon oral administration [4]: essentially unabsorbed
- absorption upon oral administration ([4]; listed as Pepstatin): only poorly absorbed
- duration of pepsin suppression (pepsin [5]): about 1 hours
- effect on the gastric acidity (pepsin [6]): no effect
- gastric peptic activity (pepsin [6]): inhibits gastric peptic activity
- formation of stomach ulcers (stomach ulcers): prevent the formation of stomach ulcers
- side effects [7]: no side effects were observed
- healing or symptomatology of gastric ulcer (gastric ulcer): not able to detect any influence
- healing or symptomatology of duodenal ulcer (duodenal ulcer; versus placebo): no significant difference between pepstatin and placebo
- duration of inhibition of peptic activity of gastric juice (duodenal ulcer): 18 hours a day
- pepsin activity (pepsin [8]): completely inhibited
- ulcer formation (pepsin [8]): antagonized ulcer formation

SMILES: CNC(=C[N+](=O)[O-])NCCSCc1ccc(CN(C)C)o1 [Ranitidine, ranitidine]
- times as potent as cimetidine as an inhibitor of gastric secretion (gastric secretion [9]): ~6 times
- ED50 (gastric erosions; Rattus norvegicus, po, compound alone, orally 30 minutes before 1.0 mL of 0.75N HCl, read-out: ED50 (mg/kg) for Inhibition of Ulcer Formation Alone): 123 mg/kg
- ED50 (mg/kg) for Inhibition of Ulcer Formation with Pepstatin (gastric erosions; compound orally 30 minutes before and pepstatin 20 mg/kg po 10 minutes before HCl): 104 mg/kg
- times as potent as cimetidine as an inhibitor of gastric secretion (gastric secretion [10]): about 4 times
